{"source": "patent US20090004105A1", "about": "“Molecular imaging of matrix metalloproteinase expression using labeled chlorotoxin” (priority 2007, published 2009)", "origin": "cited, not measured here", "key": {"[1]": {"system": "tumors of neuroectodermal origin", "settings": "immunohistochemical studies, Lyons et al. 2002"}, "[2]": {"molecular_target": "T1, MMP-2 presented on the surface of glioma cells (Homo sapiens, UniProt P08253)", "T1 sequence (P08253 110-660)": "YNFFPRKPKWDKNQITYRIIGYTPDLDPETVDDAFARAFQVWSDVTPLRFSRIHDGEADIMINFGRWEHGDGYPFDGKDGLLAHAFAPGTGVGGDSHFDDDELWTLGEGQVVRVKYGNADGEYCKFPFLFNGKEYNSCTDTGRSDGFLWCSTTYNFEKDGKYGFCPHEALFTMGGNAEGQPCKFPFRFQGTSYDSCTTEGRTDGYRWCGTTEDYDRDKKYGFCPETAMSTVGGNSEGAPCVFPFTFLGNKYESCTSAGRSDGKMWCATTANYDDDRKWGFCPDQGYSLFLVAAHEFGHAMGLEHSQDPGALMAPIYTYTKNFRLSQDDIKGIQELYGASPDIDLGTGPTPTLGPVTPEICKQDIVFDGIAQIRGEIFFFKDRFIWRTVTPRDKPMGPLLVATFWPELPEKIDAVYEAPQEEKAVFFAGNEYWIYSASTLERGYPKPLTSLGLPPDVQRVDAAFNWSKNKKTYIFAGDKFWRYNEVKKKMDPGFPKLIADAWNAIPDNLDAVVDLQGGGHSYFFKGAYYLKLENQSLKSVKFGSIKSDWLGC", "settings": "Deshane et al. 2003"}}}
{"substance": "Chlorotoxin [Cltx]", "values": [{"measurement": "binding to tumors of neuroectodermal origin", "setting": "[1]", "value": "specifically and selectively binds"}, {"measurement": "MMP-2 inhibition", "setting": "[2]", "value": "specific MMP-2 inhibitor"}, {"measurement": "binding affinity to MMP-2 on glioma cell surface", "setting": "[2]", "value": "high affinity"}]}
